Consider 34 compounds from US20140227208A1, “COSMETIC COMPOSITIONS CONTAINING SUBSTITUTED AZOLE AND METHODS FOR ALLEVIATING MECHANICALLY-INDUCED SKIN INFLAMMATION” (The Procter & Gamble Company, priority 2013, published 2014).

The target of data set [1] is CYP3A4 (Homo sapiens, UniProt P08684). In words: In vitro CYP/CYP3A4 inhibition assay (P450-GLO Assay kit, Promega). The text has this: The metabolism of retinoic acid and vitamin D in the skin is incompletely understood, but there is evidence for the involvement of CYP26A1, CYP3A4 and CYP2C8 in catalyzing the 4-hydroxylation of all-trans RA to 4-hydroxy-RA. It is believed, without being limited by theory, that CYP3A4 may be particularly important for ATRA metabolism in the skin. This is because CYP3A4 is expressed in skin, involved in RA metabolism, a CYP with one of the broadest substrate specificities of all of the known CYPs and available as a human recombinant protein in a commercial kit. Thus, a commercially available CYP3A4 assay was used as a surrogate to predict RAMBA potential in the skin.
The commercially available P450-GLO™ Assay kit (Promega Corporation, Madison Wis.) was used to screen various compounds for potential CYP activity, specifically CYP3A4A inhibition activity. CYP3A4A is thought to be among the primary CYP isoforms responsible for retinoic acid metabolism in the skin.
The commercially available P450-GLO™ Assay kit (Promega Corporation, Madison Wis.) was used to screen various compounds for potential CYP activity, specifically CYP3A4A inhibition activity. CYP3A4A is thought to be one of the primary CYP isoforms responsible for retinoic acid metabolism in the skin.

Data set [2] concerns ATRA 4-hydroxylase activity (CYP) of pig liver microsomes. In words: In vitro ATRA 4-hydroxylase (CYP) inhibition assay using pig liver microsomes. The following applies: for IC50: 90 min. The text has this:
Cytochrome P450 is a large and diverse group of enzymes that catalyze the oxidation of organic substances. […] Applicant evaluated the potential RAMBA activity of several azoles using pig liver microsomes, a rich source of CYP activity, comprising many different CYP 450 isoforms. […] As understanding in this area has progressed, a more specific CYP inhibition assay can be used to provide better predictivity of activity in human skin. Nevertheless, this assay may still be used as a general predictor of overall CYP activity.
Microsomal preparation: One lobe of fresh pig liver was obtained at the time of slaughter from a food-processing company and immediately placed in ice cold 15 mM KH2PO4/250 mM sucrose (pH 7.4) and kept on ice during transportation. A 10 g sample of liver was minced and homogenized in 30 mls of homogenization buffer (15 mM KH2PO4/250 mM sucrose) using a Tekmar homoginizer by pulsing 3 times 20 second pulses. […] The remaining pig liver was cut into 10-g pieces and wrapped in aluminum foil and stored at −80° C. The homogenates from the 8 samples were pooled and centrifuged at 13,000×g for 20 minutes at 4° C. to remove crude debris and the supernatant was further centrifuged at 100,000×g for 70 minutes at 4° C. The microsomal pellets were resuspended into 50 mls of 150 mM KH2PO4/1 mM DTT (pH 7.4) and 1 mL aliquots were stored at −80° C. In vitro 4-hydroxylase activity assay: All procedures were carried out under minimal light in order to prevent degradation of the retinoid samples. The ATRA 4-hydroxylase assay can be described briefly as follows: 100-150 μg of pig liver microsomal protein in 150 mM KH2PO4 was incubated at 37° C. in the presence of radiolabeled ATRA and 5 mM NADPH for 90 min. The final ATRA concentration was 1 μM, as a combination of [20-Methyl-^3H]ATRA and unlabeled ATRA. Initially radiolabeled ATRA was used to assist in validating the method. Once retention times of retinoid metabolites were identified unlabeled ATRA was used for screening. Compounds tested as possible competitive substrates were added to the assay 10 min prior to the addition of ATRA. Ethanol, containing 0.1% butylated hydroxytoluene (BHT) as an antioxidant, was used to stop the reactions. For recovery of ATRA the pH of reactions were adjusted to 3.0 before extraction with 0.1N HCl. Retinoids were extracted from the protein aqueous phase with 4 mls hexane, 1 ml 100 μg/ml BHT in water (pH 3). An additional 4 mls of hexane (pH 3) was used for a second extraction. The organic extractions were pooled, evaporated to dryness using a speed vac, and resuspended in 62.5 μl acetonitrile containing 1 mg/ml BHT. Samples were analyzed by HPLC. […] Mobile phases used for gradient elution of retinoids were those of Duell et al., J. Clin. Invest. […] Mobile phase A was acetonitrile:0.02 M ammonium acetate:acetic acid (1:1:0.01) and mobile phase B was acetonitrile:0.2M ammonium acetate;acetic acid (19:1:0.008). […] Because of the sensitivity limitations of the β-RAM spectrometer, it was not used to quantitate peak areas but rather to confirm ATRA and ATRA 4-hydroxylase activity. Calculated peaks areas (using Millenium software—Waters Corp.) of ATRA and ATRA metabolites were used to quantify relative activity levels.
(In general: Liver microsomes are vesicles of endoplasmic reticulum, rich in cytochrome P450 enzymes.)

The subject of data set [3] is mechanically-induced skin inflammation (shaving). The data set is described as follows: Method of treatment: shaving cream and leave-on skin cream applied to facial and neck regions. Format: in vivo, human. The following applies: 0.55% by weight in shaving cream before and leave-on cream after shaving, topical, 8 weeks. The text has this: A test subject topically applies a shaving cream composition comprising 0.55% 1-phenylimidazole, by weight in a vehicle, to the facial and neck regions prior to shaving. A leave-on skin cream comprising 0.55% 1-phenylimidazole, by weight in a vehicle, is applied to the same facial and neck regions after shaving.

Setting [4] is: IC50 (uM), CYP3A4 inhibition, P450-GLO Assay kit, human recombinant CYP3A4.
[5] abbreviates: read-out: IC50 (μM), in vitro 4-hydroxylase inhibition assay, pig liver microsomes, 1 μM ATRA, 5 mM NADPH, 37° C.
The mark [6] stands for this setting: P450-GLO Assay kit, human recombinant CYP3A4.
The mark [7] stands for this setting: read-out: IC50 (uM), CYP3A4 inhibition, P450-GLO Assay kit, human recombinant CYP3A4.

Read-outs that look alike come from different tables or passages of the source. Some results are limits rather than exact numbers.

CYP3A4, sequence (P08684 whole entry): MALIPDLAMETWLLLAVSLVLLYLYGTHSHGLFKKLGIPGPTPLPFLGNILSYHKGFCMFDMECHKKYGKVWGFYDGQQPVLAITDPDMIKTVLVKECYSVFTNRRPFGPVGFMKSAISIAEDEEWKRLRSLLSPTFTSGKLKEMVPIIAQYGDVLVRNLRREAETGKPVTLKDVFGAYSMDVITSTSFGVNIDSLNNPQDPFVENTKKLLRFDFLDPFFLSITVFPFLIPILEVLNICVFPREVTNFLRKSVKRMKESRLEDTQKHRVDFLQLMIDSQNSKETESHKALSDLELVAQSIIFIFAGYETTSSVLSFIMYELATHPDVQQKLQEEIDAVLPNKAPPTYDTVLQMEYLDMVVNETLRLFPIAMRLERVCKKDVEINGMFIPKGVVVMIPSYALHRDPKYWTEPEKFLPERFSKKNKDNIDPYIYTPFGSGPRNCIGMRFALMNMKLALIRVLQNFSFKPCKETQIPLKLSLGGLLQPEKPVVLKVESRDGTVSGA

As to `CC(=O)n1ccnc1` [1-Acetylimidazole], the IC50 in data set [1] (setting [4]) was above 10 µM.
In the case of `Cn1ccnc1` [1-Methylimidazole], in data set [1], the IC50 is above 10 µM.
For the compound `C=Cn1ccnc1` [1-Vinylimidazole], the IC50 in data set [1] (setting [4]) is above 10 µM.
Regarding `Cc1nccn1Cc1ccccc1` [1-benzyl-2-methylimidazole], in data set [2] (pig), the concentration for half-maximal inhibition (IC50) worked out at 308 µM.
For `c1ccc(Cn2ccnc2)cc1` [1-benzylimidazole], the IC50 in data set [2] (setting [5]) was determined as 77.5 µM.
For `c1ccc(-n2ccnc2)cc1` [1-phenylimidazole], the “CYP inhibitory activity (in words), 4-hydroxylase assay” value (from here on “CYP inhibitory activity (in words)”) in data set [2] (pig liver microsomes) is listed as “IC50 values in the same range as climbazole”. Moreover, the IC50 in data set [2] (setting [5]) is 52.5 µM; in data set [1] (human, recombinant enzyme), 1 µM. Also, in data set [3], the “facial and neck skin inflammation noted by the subject” value is on record as “significantly less inflamed”. In data set [1] (P450-GLO Assay kit), the “inhibitory activity in the CYP3A4 assay (in words)” value is reported as “showed inhibitory activity”. Also, the “Hit / no hit for inhibition of CYP3A4” value in data set [1] (setting [6]) is given as “Hit”.
For the compound `O=C(n1ccnc1)n1ccnc1` [1′-1-Carbonylimidazole], the IC50 in data set [1] (setting [4]) was above 10 µM.
On the same count and under the same terms, as for `Clc1ccccc1-c1nc2ccccc2[nH]1` [2-(2-Chlorophenyl) benzimidazole], the figure is above 10 µM.
The compound `CCCCc1nc(C=O)c(Cl)[nH]1` [2-Butyl-4-chloro-5-formylimidazole] showed an IC50 in data set [1] above 10 µM.
`CCc1nc(C)c[nH]1` [2-Ethyl-4-methylimidazole]: the IC50 in data set [1] (setting [4]) was above 10 µM.
Turning to `CCc1ncc[nH]1` [2-Ethylimidazole], the IC50 in data set [1] was above 10 µM.
For `Cc1ncc[nH]1` [2-Methylimidazole], the IC50 in data set [1] (setting [4]) is above 10 µM.
As for `c1ccc(-c2ncc[nH]2)cc1` [2-phenylimidazole], in data set [2] (pig liver microsomes), the “CYP inhibitory activity (in words)” value is recorded as “lacked any significant inhibitory activity”. Also, in data set [2] (setting [5]), the IC50 is above 500 µM. In data set [1], the IC50 is above 10 µM and the “inhibitory activity in the CYP3A4 assay (in words)” value is given as “did not”.
As for `c1ccc(-c2nc[nH]c2-c2ccccc2)cc1` [4,5-diphenylimidazole], the half-maximal inhibitory concentration (IC50) in data set [2] (pig) was determined as 100 µM.
Consider `c1ccc(-c2c[nH]cn2)cc1` [4-phenylimidazole], for which, in data set [2] (pig liver microsomes), the “CYP inhibitory activity (in words)” value is reported as “IC50 values in the same range as climbazole”.
As to `CC(=O)c1ccc(-n2ccnc2)cc1` [4′-(Imidazol-1yl) acetophenome], in data set [1] (setting [4]), the IC50 is 0.8 µM. The “Hit / no hit for inhibition of CYP3A4” value in data set [1] (human, recombinant enzyme) was “Hit”.
For `Clc1ncnc2[nH]cnc12` [6-Chloropurine], the half-maximal inhibitory concentration (IC50) in data set [1] (setting [4]) was above 10 µM.
`Nc1nc[nH]n1` [Amitrol] registered a 50% inhibitory concentration (IC50) in data set [1] above 10 µM.
In the case of `c1ccc2[nH]cnc2c1` [Benzimidazole], the IC50 in data set [1] (setting [4]) was above 10 µM.
The same measure, in the same setting: with `CC1=N[C@H](C(=O)O)CCN1` [Ectoine] the figure was above 10 µM.
For the compound `c1coc(-c2nc3ccccc3[nH]2)c1` [Fuberidazole], the IC50 in data set [1] was above 10 µM. Also, the “Hit / no hit for inhibition of CYP3A4” value in data set [1] (human, recombinant enzyme) is “no hit >10 uM (key: hit: strong inhibition (IC50 value<10 μM); no hit: weak/no inhibition (IC50 value>10 μM))”.
Regarding `N=C(N)c1ccc(OCCCCCCOc2ccc(C(=N)N)cc2)cc1` [Hexamidine diisethionate], in data set [1] (setting [4]), the IC50 was above 10 µM.
Same read-out and setting: as for `N[C@@H](Cc1c[nH]cn1)C(=O)O` [Histidine], the figure is above 10 µM.
In data set [1], `c1ccc(-c2n[nH]cc2-c2ccnc3ccccc23)nc1` [LY-364947] registered a 50% inhibitory concentration (IC50) above 10 µM.
For `Cc1cccc(C)c1N(Cn1cccn1)C(=O)CCl` [Metazachlor], the IC50 in data set [1] was above 10 µM. Moreover, the “Hit / no hit for inhibition of CYP3A4” value in data set [1] (human, recombinant enzyme) is listed as “no hit >10UM (key: hit: strong inhibition (IC50 value<10 μM); no hit: weak/no inhibition (IC50 value>10 μM))”.
As to `Cc1ccc2cc3c(ccc4ccccc43)c3c2c1CC3` [Methylcholanthrene], the “Hit / no hit for inhibition of CYP3A4” value in data set [1] (setting [6]) is listed as “Near Hit”.
Compound `CCc1cccc(C)c1N(C(=O)CCl)C(C)COC` (centres unmarked) [Metolachlor] showed an IC50 in data set [1] above 10 µM. In addition, the “Hit / no hit for inhibition of CYP3A4” value in data set [1] (setting [6]) is recorded as “no hit (weak/no inhibition (IC50 value>10 μM))”.
Turning to `CC(C)(C(=O)c1cccnc1)c1cccnc1` [Metyrapone], the 50% inhibitory concentration (IC50) in data set [1] worked out at 3 µM. The “Hit / no hit for inhibition of CYP3A4” value in data set [1] (human, recombinant enzyme) is “Hit”.
Turning to `Clc1ccc(COC(Cn2ccnc2)c2ccc(Cl)cc2Cl)c(Cl)c1` (centres unmarked) [Miconazole], the “Hit / no hit for inhibition of CYP3A4” value in data set [1] (human, recombinant enzyme) was “Hit 5 uM”.
Compound `NCCCn1ccnc1` [N-(3-Aminopropyl) imidazole] gave an IC50 in data set [1] above 10 µM.
Regarding `CC(=O)/C=C/C1=C(C)CCCC1(C)C` [β-Ionone], the IC50 in data set [1] (setting [4]) was above 10 µM.
Benomyl: the “Hit / no hit for inhibition of CYP3A4” value in data set [1] (setting [6]) is “no hit (weak/no inhibition (IC50 value>10 μM))”. The IC50 in data set [1] (setting [7]) is above 10 µM.
Consider Glutamylamidoethyl imidazole, for which the “Hit / no hit for inhibition of CYP3A4” value in data set [1] (setting [6]) is on record as “no hit (weak/no inhibition (IC50 value>10 μM))”. The IC50 in data set [1] (setting [7]) was above 10 µM.
On the same counts, the results for Piperine are “Hit” and around 10 µM.

For orientation: IC50 means the concentration at which inhibition is half-maximal.
